Consider 7 compounds from patent publication US7709516B2, “Helix 12 directed non-steroidal antiandrogens” (Endorecherche, Inc., priority 2005, dated 2010).

The term pIC50 denotes the negative decadic logarithm of the IC50, by convention in mol/L.

pIC50: −log10 of the molar value. Read-outs that look alike come from different tables or passages of the source.

Test [1] concerns rat prostate, seminal vesicle, levator ani muscle. Put plainly: Systemic antiandrogenic activity in orchidectomized immature male rats with DHT implant. As to conditions: rat +DHT, 0.5 mg/animal daily 7 days; for % Inhibition Prostate / % Inhibition Lev.Ani / % Inhibition SV: Table 3; for inhibition in vivo at 0.5 mg: Rattus norvegicus, 168 h, s.c. or p.o. (route not marked). The format is in vivo.

The target in the next test is T1, Human Androgen Receptor (Homo sapiens, UniProt P10275).
T1 sequence (P10275 1-920): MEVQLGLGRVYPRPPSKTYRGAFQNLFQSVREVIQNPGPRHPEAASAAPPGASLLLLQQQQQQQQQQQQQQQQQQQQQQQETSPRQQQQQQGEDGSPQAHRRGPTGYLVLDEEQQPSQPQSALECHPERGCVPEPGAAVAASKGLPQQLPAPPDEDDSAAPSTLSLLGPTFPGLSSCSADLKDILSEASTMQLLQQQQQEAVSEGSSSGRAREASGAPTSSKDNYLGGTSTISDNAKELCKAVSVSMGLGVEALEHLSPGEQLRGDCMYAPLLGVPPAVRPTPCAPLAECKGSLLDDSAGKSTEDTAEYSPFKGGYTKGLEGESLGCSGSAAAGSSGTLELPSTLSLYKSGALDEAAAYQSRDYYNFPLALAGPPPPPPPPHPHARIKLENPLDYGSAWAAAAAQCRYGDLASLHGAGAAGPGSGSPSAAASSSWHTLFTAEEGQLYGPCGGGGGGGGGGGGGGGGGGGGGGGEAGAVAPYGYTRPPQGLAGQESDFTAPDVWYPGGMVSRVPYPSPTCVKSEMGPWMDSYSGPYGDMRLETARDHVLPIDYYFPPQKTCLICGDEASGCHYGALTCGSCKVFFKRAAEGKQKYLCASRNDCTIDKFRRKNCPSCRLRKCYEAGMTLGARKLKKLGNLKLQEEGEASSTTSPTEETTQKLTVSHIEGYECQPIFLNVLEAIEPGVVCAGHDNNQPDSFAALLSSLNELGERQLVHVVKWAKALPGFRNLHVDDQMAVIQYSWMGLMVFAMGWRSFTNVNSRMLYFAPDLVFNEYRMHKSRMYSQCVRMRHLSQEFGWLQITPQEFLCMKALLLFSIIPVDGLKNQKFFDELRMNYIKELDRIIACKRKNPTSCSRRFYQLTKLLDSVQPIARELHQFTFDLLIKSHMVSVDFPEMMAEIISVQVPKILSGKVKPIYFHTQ
Nature of the test: Androgen receptor binding assay ([3H]R1881, HAP) in cytosol of HEK-293 cells transfected with hAR. The following applies: relative to R1881 = 100, transfected cells.

Test [2] deals with Shionogi mouse mammary carcinoma cells. Put plainly: Androgenic/antiandrogenic activity: inhibition of DHT-stimulated Shionogi cell number. Type of test: cell-based. As to conditions: DHT-stimulated Shionogi cell number; for pIC50: Mus musculus; for Shionogi Antiandrogenic Activity IC50: Table 3.
In test [3] the test system is rat prostate, seminal vesicle, levator ani muscle. Nature of the test: Systemic androgenic activity in orchidectomized immature male rats. As to conditions: 168 h, 0.2 mg/animal daily 7 days. Type of test: in vivo. The text has this:
Column 7 represents the % of androgenic efficacy in rat prostate, expressed in percentage of stimulation:
W is the weight of the prostate.
Column 8 represents the % of androgenic efficacy in rat seminal vesicle, expressed in percentage of stimulation:
W is the weight of the seminal vesicle.
Column 9 represents the % of androgenic efficacy in rat levator ani muscle, expressed in percentage of stimulation: […]
Immature male rats (Crl:CD(SD)Br) 22 to 24-day old were obtained from Charles-River, Inc. (St-Constant, Quebec, Canada) and housed up to 5 per cage in plastic bins in a temperature (23±1° C.)— and light (12 h light/day, lights on at 7h15)— controlled environment. The rats were fed rodent chow and tap water ad libitum. The day following their arrival, the animals were orchidectomized (CX) under Isoflurane anesthesia via scrotal route and randomly assigned to groups of 5 animals.
To evaluate the antiandrogenic activity, tested compounds were administered subcutaneously or orally once daily at a dose of 0.5 mg/animal for antiandrogenitic activity or 0.2 mg/animal for androgenic activity for 7 days (SD 1 to 7). Compounds were solubilized (when possible) in dimethylsulfoxide (DMSO, 10% final concentration) and administered as suspension in 0.4% methylcellulose. […] One group of animals received the antiandrogen Flutamide as reference. The animals were killed by cervical dislocation under isoflurane anesthesia on the 8th morning following castration. The ventral prostate and seminal vesicles were rapidly dissected and weighed.
3. Calculations and Statistical Analysis
W is the weight of the prostate, the seminal vesicle or levator ani.

In test [4] the test system is sebaceous glands of the left ear. Put plainly: Topical antiandrogenic activity, ear sebaceous glands model in the male hamster. Type of test: in vivo. As to conditions: 3 μg daily dose for 14 days. As to the method: Column 5 represents the percentage of inhibition of the area of the sebaceous glands of the left ear of the treated animals versus the area of the sebaceous glands of the left ear of the control animals. A 3 μg-daily dose for 14 days of tested compound dissolved in ten μL solution of ethanol: propylene Glycol (1:1; v: v) applied onto a region between the two cartilage ridges of the ventral surface of left pinna.
D—In vivo Assessment of Topical Antiandrogenic Activity
The antiandrogenic activity of compounds for topical use was determined using the ear sebaceous glands model in the male hamster.
Male Golden Syrian Hamsters (SYR) of 110-120 g were obtained from Harlan Sprague-Dawley (Madison, USA) and housed up to 2 per plastic cage in a temperature (22±3° C.) and light (12 h light/day, lights on at 7h15)-controlled environment. The hamsters were fed with Certified Rodent Diet 5002 (pellet) and had access to tap water ad libitum. […]
The total area of the sebaceous glands (μm^2) in each examined field was calculated by the Image Analyser. We also measured the total area, which has the length of 0.953 mm and the height between stratum granulosum and the cartilage. […] Thus, for each ear, two sections were cut and two fields from each section were analyzed. The total of the four readings was averaged and the mean standard error of the mean was calculated by the image analyzer. […]

Setting [5] is: read-out: Shionogi Antiandrogenic Activity IC50, Table 3, agonist reported when compound stimulates the cells.
The mark [6] stands for this setting: sc, Table 3, s.c (marked in prostate cell), read-out: % Stimulation Lev.Ani.
[7] abbreviates: sc, Table 3, s.c (marked in prostate cell), read-out: % Stimulation SV.
The mark [8] stands for this setting: sc, Table 3, s.c, read-out: % Stimulation Prostate.
Where [9] appears, read: agonist reported when compound stimulates the cells.
The mark [10] stands for this setting: po, Table 3, p.o (marked in prostate cell), read-out: % Stimulation Lev.Ani.
Where [11] appears, read: po, Table 3, p.o (marked in prostate cell), read-out: % Stimulation SV.
Setting [12] is: po, Table 3, p.o, read-out: % Stimulation Prostate.

As to `Cc1c(N2C(=O)C(C)(C)N(CCCOc3ccc(CNC(C)C)cc3)C2=S)ccc(C#N)c1Cl` [EM-7198], the “% Inhibition Prostate” value in test [1] (s.c) is given as 15 s.c %. On Human Androgen Receptor (Table 3), the “Human Androgen Receptor Binding (%) RBA R1881 = 100” value is recorded as 44%. In test [2] (setting [5]), the pIC50 is 8.00. Besides, the values for the change in vivo at 0.2 mg in test [3] (setting [6]), in test [3] (setting [7]) and in test [3] (setting [8]) were 182%, 106% and 65%, respectively.
As to `Cc1c(N2C(=O)C(C)(C)N(CCCOc3ccc(CN(C)C)cc3)C2=S)ccc(C#N)c1Cl` [EM-7298], in test [1] (s.c (marked in prostate cell)), the “% Inhibition Lev.Ani” value is on record as 14%. The “% Inhibition Prostate” value in test [1] (s.c) is on record as 36 s.c %. At Human Androgen Receptor (Table 3), the “Human Androgen Receptor Binding (%) RBA R1881 = 100” value was 61%. Also, in test [2] (setting [5]), the pIC50 is 8.09. Further, the change in vivo at 0.2 mg in test [3] (setting [6]) amounted to 103%; in test [3] (setting [7]) it was 29%; in test [3] (setting [8]), 33%.
For `CCC(c1ccc(OCCC2(O)CCN(c3ccc(C#N)c(C(F)(F)F)c3)CC2)cc1)N1CCCC1` (stereo not drawn) [EM-7893, 4-(4-{2-[4-(1-propyl-pyrolidine)-phenoxy]-ethyl}-4-hydroxy-piperidin-1-yl)-2-trifluoromethyl-benzonitrile], the inhibition in vivo at 0.5 mg in test [1] (read-out: Lev Ani % inhibition, Table 2, levator ani) was 26%; in test [1] (read-out: Prostate % inhibition, Table 2) it was 6%; in test [1] (read-out: SV % inhibition, Table 2, seminal vesicle), 38%. Also, the “Human Androgen Receptor Binding (%) RBA R1881 = 100” value at Human Androgen Receptor (Table 2) and on Human Androgen Receptor (Table 4) was 10.3% throughout. Moreover, the “Hamster Topical 3 μg dose % inhibition vs cx (area of sebaceous glands of the left ear)” value in test [4] is listed as 47%. Further, the pIC50 is 8.29 in test [2] (read-out: Shionogi Antiandrogenic Activity IC50, Table 2) and 8.29 in test [2] (read-out: Shionogi Antiandrogenic Activity IC50, Table 4).
With `Cc1cc(CN2CCOCC2)ccc1OCCCN1C(=S)N(c2ccc(C#N)c(Cl)c2C)C(=O)C1(C)C` [EM-8255], the “% Inhibition Prostate” value in test [1] (s.c) was 17 s.c %. The “Human Androgen Receptor Binding (%) RBA R1881 = 100” value at Human Androgen Receptor (Table 3) came out at 76%. Besides, the “Shionogi Antiandrogenic Activity IC50” value in test [2] (setting [9]) was “Partial agonist”. The change in vivo at 0.2 mg is 80% in test [3] (setting [6]), 31% in test [3] (setting [7]) and 32% in test [3] (setting [8]).
Take `Cc1c(N2C(=O)C(C)(C)N(CCCOc3ccc(S(C)(=O)=O)cc3)C2=S)ccc(C#N)c1Cl` [EM-8260, 4-(3-{3-[4-(1-methylsulfonyl)-phenoxy]-propyl}-4,4-dimethyl-5-oxo-2-thioxo-imidazolidin-1-yl)-2-chloro-3-methyl-benzonitrile]: the “% Inhibition Lev.Ani” value in test [1] (p.o (marked in prostate cell)) is 24%. In test [1] (p.o (marked in prostate cell)), the “% Inhibition SV” value was 54%. The “% Inhibition Prostate” value in test [1] (p.o) stood at 40 p.o %. In addition, the “Human Androgen Receptor Binding (%) RBA R1881 = 100” value on Human Androgen Receptor (Table 3) is recorded as 17%. The “Shionogi Antiandrogenic Activity IC50” value in test [2] (setting [9]) was “Partial agonist”. Moreover, the change in vivo at 0.2 mg in test [3] (setting [10]) was found to be 74%; in test [3] (setting [11]), 28%; in test [3] (setting [12]), 27%.
On to `CCS(=O)(=O)c1ccc(OCCCN2C(=S)N(c3ccc(C#N)c(Cl)c3C)C(=O)C2(C)C)cc1` [EM-8261], for which, in test [1] (p.o (marked in prostate cell)), the “% Inhibition Lev.Ani” value came to 8%. The “% Inhibition SV” value in test [1] (p.o (marked in prostate cell)) worked out at 25%. In addition, the “% Inhibition Prostate” value in test [1] (p.o) is 38 p.o %. Also, the “Human Androgen Receptor Binding (%) RBA R1881 = 100” value at Human Androgen Receptor (Table 3) is reported as 32%. Also, the “Shionogi Antiandrogenic Activity IC50” value in test [2] (setting [9]) is reported as “Partial agonist”. Further, the change in vivo at 0.2 mg in test [3] (setting [10]) amounted to 82%; in test [3] (setting [11]), 26%; in test [3] (setting [12]), 41%.
Turning to `Cc1c(N2C(=O)C(C)(C)N(CCCOc3ccc(S(=O)(=O)C(C)C)cc3)C2=S)ccc(C#N)c1Cl` [EM-8363], the “Human Androgen Receptor Binding (%) RBA R1881 = 100” value at Human Androgen Receptor (Table 3) is 52%. In addition, the “Shionogi Antiandrogenic Activity IC50” value in test [2] (setting [9]) is reported as “Partial agonist”. Moreover, the values for the change in vivo at 0.2 mg in test [3] (setting [10]), in test [3] (setting [11]) and in test [3] (setting [12]) were 85%, 24% and 29%, respectively.
